From patent US6403623B1, “Heterocyclic antituberculosis agents” (Unuversity of Notre Dame du Lac, priority 1999, dated 2002)

Tested on: M. tuberculosis H37R
Assay: microbe, parasite or virus in culture
Type: cell-based
Settings: Mycobacterium tuberculosis, in vitro, concentration of 12.5 μg/mL, read-out: inhibition of the growth of M. tuberculosis H37R

O=C(OCc1ccccc1)[C@@H]1COC(c2ccccc2OCc2ccccc2)=N1 [Example 1, (S)-Benzyl 2-[2-(Benzyloxy)phenyl]-2-oxazoline-4-carboxylate]
inhibition at 12.5 µg/mL: 98%
